Where “and” joins values, the source holds several entries; their conditions need not be identical. Identical values can stand only once. Like-named read-outs stand apart in the source and are kept apart here.
Legend:
AChE = conditions: cited from earlier work; for type of inhibition of AChE: native triterpenic acids
[1] = molecular target: butyrylcholinesterase (BChE); conditions: cited from earlier work; for BChE activity (in words): native triterpenic acids
[2] = molecular target: T1, Acetylcholinesterase from Electrophorus electricus (electric eel) (Electrophorus electricus, UniProt O42275); test: In vitro AChE inhibition assay (modified Ellman's method); format: biochemical; conditions: for IC50: IC50 against AChE enzyme, triplicate; for IC50 / AChE inhibitory activity (in words): electric eel AChE, Ellman's assay; for times more active than 3-oxo-analog: indole derivative vs its 3-oxo amide
T1 construct: purchased Sigma-Aldrich C2888
Protocol: Acetylcholinesterase from Electrophorus electricus (electric eel) (AChE, Sigma C2888), sodium phosphate buffer (PBS) 0.1 M pH 7.4, acetylthiocholine iodide (ACT, Sigma A5751), and 5,5′-dithiobis-(2-nitrobenzoic acid) (DTNB, Sigma D8130) were purchased from Sigma-Aldrich (St. Louis, MO, USA). In vitro anti-AChE activity was performed based on the modified Ellman’s method. […] The IC50 values were determined graphically from inhibition curves (log inhibitor concentration vs. percent of inhibition). All experiments were performed in triplicate. Donepezil was used as a positive control

[3] = molecular target: T2, recombinant human acetylcholinesterase (hAChE) (Homo sapiens, UniProt P22303); test: In vitro inhibition of recombinant human AChE (Ellman's method), IC50; format: biochemical; conditions: 1 mM ATC, pH 8.0, 25 °C, read-out: IC50 against hAChE enzyme
T2 construct: purchased Sigma-Aldrich
Protocol: Acetylthiocholine iodide (ATC), recombinant human acetylcholinesterase (hAChE), and 5,5′-dithio-bis-(2-nitrobenzoic) acid (DTNB) were purchased from Sigma-Aldrich (Sigma-Aldrich). Dimethyl sulfoxide (DMSO) was purchased from PanReac AppliChem GmbH (Darmstadt, Germany). All other chemicals were of biochemical grade. All assays were performed at 25 °C using a UV-1800 Shimadzu (Kyoto, Japan) spectrophotometer at 412 nm. The inhibitory potency of compounds against hAChE was studied using Ellman’s method. Stock solutions of compounds (0.01 M) were prepared using DMSO. The final concentration of DMSO in the cuvette was less than 0.05% vol. The inhibitory effect against AChE of 0.05% DMSO was considered weak. To determine the IC50 (the concentration of the compound producing 50% enzyme activity inhibition), enzyme-catalyzed hydrolysis was carried out in 0.1 M phosphate buffer (pH 8.0) containing hAChE in the picomolar range, DTNB (0.1 mM final concentration), and 1 mM ATC as substrate. […] Then, absorbance change was recorded for 2 min. […] The percentage of hAChE inhibition was determined by comparison of rates of reaction of test samples relative to the control sample. […] IC50 was calculated using the Hill Equation: E/Emax=I^n/IC50n+I^n where E is the enzyme activity and [I] is the compound concentration.

[4] = molecular target: T2, recombinant human acetylcholinesterase (hAChE); test: hAChE inhibition constants and inhibition type (Dixon and Cornish-Bowden plots); format: biochemical; conditions: for type of AChE inhibition: Dixon and Cornish-Bowden plots
Protocol: The inhibition constants for hAChE were determined in 0.1M sodium phosphate buffer (pH 8.0) with various ATC concentrations in the range 0.1–1 mM. The rate of hydrolysis of ATC was measured after the addition of DTNB (0.1 mM final concentration) and enzyme. The final enzyme concentration in the assays was in the picomolar range. Controls of the active enzyme with 0.05% DMSO and ATC spontaneous hydrolysis in the absence of an inhibitor were performed for each substrate concentration. The rate of substrate hydrolysis was recorded by monitoring the linear optical density change at 412 nm for 5 min. Experiments were performed in triplicate. Inhibition constants were determined from the Dixon plot and Cornish-Bowden transformation using OriginPro 8.5 software (OriginLab Corporation, Northampton, MA, USA).

[5] = system: human T-lymphoblastic leukemia cancer cells; conditions: cited from earlier work
[6] = design: method as in PMID 32090748; conditions: combination with SSRIs, patients with MDD; cited from earlier work

T1 sequence (O42275 24-633): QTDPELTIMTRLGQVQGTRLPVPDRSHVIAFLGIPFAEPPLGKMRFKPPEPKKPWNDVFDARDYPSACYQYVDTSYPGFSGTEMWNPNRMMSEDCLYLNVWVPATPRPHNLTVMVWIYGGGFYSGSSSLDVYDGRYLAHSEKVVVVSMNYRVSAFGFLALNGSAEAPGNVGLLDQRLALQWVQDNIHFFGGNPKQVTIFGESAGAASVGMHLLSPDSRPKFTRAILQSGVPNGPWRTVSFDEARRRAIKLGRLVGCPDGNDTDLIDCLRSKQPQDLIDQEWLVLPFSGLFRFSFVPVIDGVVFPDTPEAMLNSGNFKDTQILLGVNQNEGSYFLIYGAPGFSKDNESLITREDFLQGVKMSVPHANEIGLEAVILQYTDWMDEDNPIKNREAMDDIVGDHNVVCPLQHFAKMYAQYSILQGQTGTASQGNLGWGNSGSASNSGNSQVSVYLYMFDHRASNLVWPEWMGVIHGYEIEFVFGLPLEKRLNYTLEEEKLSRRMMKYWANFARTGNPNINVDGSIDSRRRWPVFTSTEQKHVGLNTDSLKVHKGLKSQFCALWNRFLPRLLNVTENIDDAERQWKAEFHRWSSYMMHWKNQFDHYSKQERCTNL
T2 sequence (P22303 32-614): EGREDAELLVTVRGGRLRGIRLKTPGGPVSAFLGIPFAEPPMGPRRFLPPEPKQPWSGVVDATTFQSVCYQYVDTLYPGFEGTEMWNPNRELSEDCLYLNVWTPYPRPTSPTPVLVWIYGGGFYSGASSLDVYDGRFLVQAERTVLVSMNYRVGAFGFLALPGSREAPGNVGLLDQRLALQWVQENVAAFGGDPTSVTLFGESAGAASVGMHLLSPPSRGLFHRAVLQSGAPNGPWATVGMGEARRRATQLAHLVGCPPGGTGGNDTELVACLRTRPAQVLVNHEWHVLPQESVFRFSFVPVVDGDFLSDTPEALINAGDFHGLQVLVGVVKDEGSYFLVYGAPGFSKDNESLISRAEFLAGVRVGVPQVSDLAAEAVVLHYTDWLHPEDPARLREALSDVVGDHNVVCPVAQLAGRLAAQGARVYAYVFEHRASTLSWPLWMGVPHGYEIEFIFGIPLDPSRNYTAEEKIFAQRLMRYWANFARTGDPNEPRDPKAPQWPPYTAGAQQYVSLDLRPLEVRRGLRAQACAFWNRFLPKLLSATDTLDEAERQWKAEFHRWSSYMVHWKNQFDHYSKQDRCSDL

## C=C(C)[C@@H]1CC[C@]2(C(=O)NCCN3CCCCC3)CC[C@]3(C)C(CCC4[C@@]5(C)CC[C@H](O)C(C)(C)C5CC[C@]43C)C12 (stereo partly drawn)
AChE; selective inhibition of AChE
  Ki: 1 µM

## CC(=O)O[C@H]1CC[C@@]2(C)C(CC[C@]3(C)C2CCC2C4[C@H](C(C)=O)CC[C@]4(C(=O)NCCN4CCCC4)CC[C@]23C)C1(C)C (stereo partly drawn)
[1]; read-out: Ki against BChE
  Ki: 0.07 µM

## C=C(C)[C@@H]1CC[C@]2(C(=O)NC3CN4CCC3CC4)CC[C@]3(C)C(CCC4[C@@]5(C)CCC(=O)C(C)(C)C5CC[C@]43C)C12 (mixture of isomers) [Compound 6, 3-oxo-lup-20-en-28-((±)-3-aminoquinuclidine) amide]
[2]
  IC50: 17 ± 1.04 µM
  AChE inhibitory activity (in words): weak activity

## CC1(C)CC[C@]2(C(=O)NC3CN4CCC3CC4)CC[C@]3(C)C(=CCC4[C@@]5(C)CCC(=O)C(C)(C)C5CC[C@]43C)C2C1 (mixture of isomers) [Compound 7, 3-oxo-olean-12-en-28-((±)-3-aminoquinuclidine) amide]
[2]
  IC50: 1.67 ± 0.05 µM

## C[C@@H]1CC[C@]2(C(=O)NC3CN4CCC3CC4)CC[C@]3(C)C(=CCC4[C@@]5(C)CCC(=O)C(C)(C)C5CC[C@]43C)C2[C@H]1C (mixture of isomers) [Compound 8, 3-oxo-urs-12-en-28-((±)-3-aminoquinuclidine) amide]
[3]
  IC50: 5.33 ± 1.6 µM
[2]
  IC50: 0.43 ± 0.02 µM
[2]; ratio of AChE IC50 values
  times less active than donepezil: 14.8 times
[4]
  type of AChE inhibition: mixed-type inhibitor
[4]; hAChE, ATC 0.1–1 mM, pH 8.0
  Kui (uncompetitive inhibition constant): 22.8 ± 1.5 µM
[4]; hAChE, ATC 0.1–1 mM, pH 8.0, read-out: Kci (competitive inhibition constant)
  Ki: 6.8 ± 0.4 µM

## CC1(C)C(=O)CC[C@@]2(C)C1CC[C@]1(C)C2CC=C2C3C[C@@](C)(C(=O)NC4CN5CCC4CC5)CC[C@]3(C)CC[C@]21C (mixture of isomers) [Compound 9, 3-oxo-11-dezoxo-olean-12-en-30-((±)-3-aminoquinuclidine) amide]
[2]
  IC50: 29 µM and 28.9 µM
  AChE inhibitory activity (in words): weak activity

## C=C(C)[C@@H]1CC[C@]2(C(=O)NC3CN4CCC3CC4)CC[C@]3(C)C(CCC4[C@@]5(C)Cc6c([nH]c7ccccc67)C(C)(C)C5CC[C@]43C)C12 (mixture of isomers) [Compound 10, [3,2b]Indolo-lup-20-en-28-((±)-3-aminoquinuclidine) amide]
[2]
  IC50: 4.77 ± 0.21 µM
[2]; ratio of AChE IC50 values
  times more active than 3-oxo-analog: 3.5 times

## CC1(C)CC[C@]2(C(=O)NC3CN4CCC3CC4)CC[C@]3(C)C(=CCC4[C@@]5(C)Cc6c([nH]c7ccccc67)C(C)(C)C5CC[C@]43C)C2C1 (mixture of isomers) [Compound 11, [3,2b]Indolo-olean-12-en-28-((±)-3-aminoquinuclidine) amide]
[3]
  IC50: 8.89 ± 0.4 µM
[2]
  IC50: 0.47 ± 0.03 µM
  AChE inhibitory activity (in words): weak activity
[2]; ratio of AChE IC50 values
  times more active than 3-oxo-analog: 3.5 times
[4]
  type of AChE inhibition: uncompetitive type of inhibition
[4]; listed as 2,3-indolo-oleanolic acid amide
  type of AChE inhibition: uncompetitive-type inhibitor
[4]; hAChE, ATC 0.1–1 mM, pH 8.0
  Kui (uncompetitive inhibition constant): 19.1 ± 5.1 µM

## C[C@@H]1CC[C@]2(C(=O)NC3CN4CCC3CC4)CC[C@]3(C)C(=CCC4[C@@]5(C)Cc6c([nH]c7ccccc67)C(C)(C)C5CC[C@]43C)C2[C@H]1C (mixture of isomers) [Compound 12, [3,2b]Indolo-urs-12-en-28-((±)-3-aminoquinuclidine) amide]
[2]
  IC50: 18 ± 1.39 µM
  AChE inhibitory activity (in words): weak activity

## CC1(C)c2[nH]c3ccccc3c2C[C@@]2(C)C1CC[C@]1(C)C2CC=C2C3C[C@@](C)(C(=O)NC4CN5CCC4CC5)CC[C@]3(C)CC[C@]21C (mixture of isomers) [Compound 13, [3,2b]Indolo-11-dezoxo-olean-12-en-30-((±)-3-aminoquinuclidine) amide]
[2]
  IC50: > 128 µM
  AChE inhibitory activity (in words): weak activity

## CC1(C)CC[C@]2(C(=O)O)CC[C@]3(C)C(=CC[C@@H]4[C@@]5(C)CC[C@H](O)C(C)(C)[C@@H]5CC[C@]43C)[C@@H]2C1 [OA, oleanolic acid]
AChE
  type of inhibition of AChE: competitive
[1]
  BChE activity (in words): inactivity

## C[C@H]1[C@H](C)CC[C@]2(C(=O)O)CC[C@]3(C)C(=CC[C@@H]4[C@@]5(C)CC[C@H](O)C(C)(C)[C@@H]5CC[C@]43C)[C@H]12 [UA, ursolic acid]
AChE
  type of inhibition of AChE: mixed
[1]
  BChE activity (in words): inactivity

## C[C@@H]1CC[C@@]2(OC1)O[C@H]1C[C@H]3[C@@H]4CC=C5C[C@@H](O)CC[C@]5(C)[C@H]4CC[C@]3(C)[C@H]1[C@@H]2C [diosgenin]
[5]
  cytotoxicity (in words): does not exhibit cytotoxicity

## CC1(C)[C@@H](O[C@H]2O[C@H](C(=O)O)[C@@H](O)[C@H](O)[C@H]2O[C@@H]2O[C@H](C(=O)O)[C@@H](O)[C@H](O)[C@H]2O)CC[C@]2(C)[C@H]3C(=O)C=C4[C@@H]5C[C@@](C)(C(=O)O)CC[C@]5(C)CC[C@@]4(C)[C@]3(C)CC[C@@H]12 [glycyrrhizic acid, Glycyrrhizic acid]
[6]
  clinical effect of adjunctive therapy (in words): impressively greater symptomatic improvement, better treatment response, and a faster onset of clinical effects

## N-benzyl-3-benzamidoquinuclidine
[1]; read-out: Ki, butyrylcholinesterase inhibitory activity
  Ki: 3.7 µM
